Reference: publication PMC6112376, “Comprehensive Analyses and Prioritization of Tox21 10K Chemicals Affecting Mitochondrial Function by in-Depth Mechanistic Studies” (Environmental Health Perspectives, 2018)
Structures can show the parent of a compound that is named as a salt. Where two headings read alike, the source gives them in different places.

What was measured:
HepG2 cells [1] = experiment: cells; settings: Homo sapiens; for IC50: HepG2, read-out: MMP assays IC50 (µM) HepG2; for Emax: HepG2, read-out: MMP assays efficacy (%) HepG2
rat primary hepatocytes [2] = experiment: MMP assay in rat primary hepatocytes; settings: for IC50: Rattus norvegicus, Hepatocyte, read-out: MMP assays IC50 (µM) Rat Hepatocytes
rat primary hepatocytes [3] = system: rat primary hepatocytes
HepG2 cells [4] = settings: cited from earlier work
[5] = read-out: MMP assays IC50 (µM), qHTS-HepG2
[6] = read-out: MMP assays IC50 (µM) qHTS-HepG2

Row | Structure (SMILES) | IC50 (HepG2 cells [1]) [µM] | Emax (HepG2 cells [1]) [%] | IC50 (rat primary hepatocytes [2]) [µM] | MMP assays efficacy (%) Rat Hepatocytes (rat primary hepatocytes [3]) | MMP assays efficacy (%) qHTS-HepG2 (HepG2 cells [4]) [%] | IC50 (HepG2 cells [4]; [5]) [µM] | MMP assays IC50 (µM) Rat Hepatocytes (rat primary hepatocytes [2]) | IC50 (HepG2 cells [4]; [6]) [µM]
1 | CCCN(CCC)c1c([N+](=O)[O-])cc(C(F)(F)F)c(N)c1[N+](=O)[O-] [Prodiamine] | 8.91 | 93 | 25.4 ± 11.7 | -95±8% | -85±11 | 4.84 ± 0.56 | – | –
2 | C/C=C(/C(=C/C)c1ccc(O)cc1)c1ccc(O)cc1 [Dienestrol] | 8.3 | 84 | – | inactive | -98±10 | – | inactive | 10.9 ± 1.88
3 | Clc1ccccc1-c1ccccc1Cl [2,2'-Dichlorobiphenyl] | 63.1 | 76 | – | inactive | -71±13 | – | inactive | 31.1 ± 12.3
4 | C[C@]12CC[C@@H]3c4ccc(O)cc4CC[C@H]3[C@@H]1CC[C@H]2O [Compound 17alpha-Estradiol] | 22.4 | 105 | 35.5 | -64±3% | -106±11 | – | – | 37.8 ± 13.9
5 | Cc1ccc2ccc3cccc4ccc1c2c34 [Compound 1-Methylpyrene] | 39.8 | 112 | 32.2 ± 7.36 | -57±10% | -112±32 | – | – | 43.2 ± 4.99
6 | Cc1ccc2c(c1N)C(=O)c1ccccc1C2=O [Compound 1-Amino-2-methylanthraquinone] | 2.51 | 92 | 5.28 ± 3.3 | -85±28% | -82±1 | – | – | 0.64 ± 0.08
7 | Nc1ccc(/N=N/c2ccc(N)cc2)cc1 [4,4'-Diaminoazobenzene] | 5.62 | 87 | 26.6 ± 12.5 | -50±40% | -86±5 | – | – | 10.5 ± 3.59
8 | CCOc1ccccc1OCCN[C@H](C)Cc1ccc(OC)c(S(N)(=O)=O)c1 [Tamsulosin hydrochloride] | 30.8 | 80 | 25.1 ± 8.04 | -45±27% | -70±8 | 27.2 ± 2.92 | – | –
9 | CCN1/C(=C/C=C/C=C/c2sc3ccccc3[n+]2CC)Sc2ccccc21 [Dithiazanine iodide] | 0.0275 | 88 | 0.98 ± 0.16 | -59±11% | -85±6 | – | – | 0.1 ± 0.15
10 | ClC(Cl)=C(c1ccc(Cl)cc1)c1ccc(Cl)cc1 [p,p'-DDE] | 44.7 | 105 | – | inactive | -96±25 | 25.6 ± 1.71 | inactive | –
11 | COC(=O)Nc1cccc(OC(=O)Nc2cccc(C)c2)c1 [Phenmedipham] | 7.08 | 107 | 19.4 ± 9.11 | -95±20% | -101±10 | 4.41 ± 2.02 | – | –
12 | CCC(C)(CC)c1cc(NC(=O)c2c(OC)cccc2OC)on1 [Isoxaben] | 14.1 | 60 | – | inactive | -80±23 | 26.3 ± 5.75 | inactive | –
13 | COc1cc(/C=C/C(=O)CC(=O)/C=C/c2ccc(O)c(OC)c2)ccc1O [Curcumin] | 2.51 | 96 | 11.6 ± 9.87 | -116±37% | -103±16 | – | – | 1.31 ± 1.03
14 | O=c1oc2ccccc2c(O)c1C1CCCc2ccccc21 (centres unmarked) [Coumatetralyl] | 35.5 | 124 | 13.8 ± 8.1 | -110±37% | -144±2 | – | – | 13.7 ± 4.84
15 | Nc1ccc(N)c2ccccc12 [1,4-Naphthalenediamine] | 2 | 109 | 22.7 ± 8.75 | -44±17% | -88±2 | – | – | 0.2 ± 0.08
16 | CCCSc1ccc2nc(NC(=O)OC)[nH]c2c1 [Albendazole] | 19.4 | 107 | 15.5 ± 21.7 | -85±78% | -78±15 | – | – | 9.35 ± 1.83
17 | CCC(C)(c1ccc(O)cc1)c1ccc(O)cc1 [Bisphenol B] | 10 | 122 | 21.8 ± 8.6 | -79±17% | -117±22 | – | – | 10.7 ± 2.48
18 | C[C@H]1O[C@@H](O[C@H]2[C@@H](O)C[C@H](O[C@H]3[C@@H](O)C[C@H](O[C@H]4CC[C@@]5(C)[C@H](CC[C@@H]6[C@@H]5CC[C@]5(C)[C@@H](C7=CC(=O)OC7)CC[C@]65O)C4)O[C@@H]3C)O[C@@H]2C)C[C@H](O)[C@@H]1O [Digitoxin] | 0.06 | 97 | – | inactive | -77±6 | – | inactive | 0.16 ± 0.05
19 | CN(C)C(=S)SSC(=S)N(C)C [THIRAM] | 24.5 | 66 | 16.5 ± 20.3 | -96±85% | -57±29 | – | – | –
20 | O=c1cc(-c2ccc(O)cc2)oc2cc(O)cc(O)c12 [Apigenin] | 3.55 | 88 | 28.9 ± 9.26 | -66±35% | -98±2 | – | – | 1.61
21 | CCCCCCCCSC(=O)Oc1cc(Cl)nnc1-c1ccccc1 [Pyridate] | 35.5 | 44 | 50.5 ± 8.18 | -59±19% | -97±17 | 33.1 ± 4.58 | – | –
22 | CCN(CC)C(=O)[C@@H]1C=C2c3cccc4[nH]cc(c34)C[C@H]2N(C)C1 [Lysergide] | 17.3 | 48 | – | inactive | -54±2 | 9.03 ± 1.87 | inactive | –
23 | Oc1c(Cl)c(Cl)cc(Cl)c1Cl [2,3,5,6-Tetrachlorophenol] | 8.91 | 92 | 9.2 ± 2.96 | -77±36% | -94±3 | – | – | 6.42 ± 2.38
24 | Brc1ccc(Oc2cc(Br)c(Br)cc2Br)c(Br)c1 [2,2',4,4',5-Pentabromodiphenyl ether] | 4.47 | 88 | 9.11 ± 4.93 | -43±30% | -109±22 | – | – | 8 ± 3.19
25 | NC(=O)N1C(=O)/C(=C(\O)c2cccs2)c2cc(Cl)ccc21 [Tenidap] | 15.8 | 102 | 21.1 ± 7.88 | -96±13% | -111±5 | 12.5 ± 1.19 | – | –
26 | Nc1ccc2cc3ccccc3cc2c1 [Compound 2-Aminoanthracene] | 3.55 | 73 | 0.18 ± 0.2 | -51±35% | -72±12 | – | – | 4.71 ± 1.92
27 | Oc1c(Cl)cc(Cl)cc1Sc1cc(Cl)cc(Cl)c1O [Bithionol] | 0.97 | 92 | 2.47 ± 1.39 | -109±25% | -97±9 | – | – | 0.66 ± 0.52
